Measured values as given in US12391685B2, “Inhibitors of RNA-guided nuclease target binding and uses thereof” (THE BROAD INSTITUTE, INC., priority 2018, dated 2025).
Where two headings read alike, the source gives them in different places.

Assays:
Type in all cases: cell-based, S. pyogenes
SpCas9 [1] = target: T1, SpCas9 (Streptococcus pyogenes serotype M1, UniProt Q99ZW2); experiment: eGFP-disruption assay in U2OS.eGFP.PEST cells; parameters: host or cells: U2OS.eGFP.PEST; conditions: for inhibition at 15 µM / Average Inhibition activity / Inhibition activity Rep 1 / Inhibition activity Rep 2: screen of structural analogs of BRD7087, 15 μM compound, U2OS.eGFP.PEST cells
Protocol: SpCas9 nuclease activity in eGFP-disruption assay. Approximately 200,000 U2OS.eGFP-PEST cells were nucleofected following two different methods either by nucleofecting plasmids or RNP using the SE Cell Line 4D-Nucleofector™ X Kit (Lonza) according to the manufacturer's protocol. In the plasmid nucleofection method, cells were nucleofected either with 440 ng of SpCas9 (Addgene Plasmid #43861) or 400 ng of SpCas9 along with 40 ng of sgRNA (pFYF1320 eGFP Site #1, Addgene Plasmid #47511). Cells nucleofected only with SpCas9-expressing plasmid were used as the transfection control. In the RNP nucleofection method, either […] SpCas9 or 20 pmol preformed SpCas9:gRNA (eGFP Site #1) complex were nucleofected. Approximately 20,000 transfected cells/well were plated in 4 replicates in a 96-well plate (Corning® 3904). Cells were incubated with the indicated amount of compound or DMSO for 24 h post transfection. A DMSO solution of compound (20 mM) was resuspended in the 10% FBS containing growth media and thoroughly mixed before adding to the cells. Cells were then fixed using 4% paraformaldehyde and imaged with the HCS NuclearMask™ Blue Stain (Life Technologies) as the nuclear counter-staining agent. Imaging was performed with an ImageXpress Micro automated microscope (Molecular Devices) at 10× magnification under three excitation channels (blue, green and red) acquiring nine sites per well. Images were analyzed using MetaXpress software and data were plotted using GraphPad Prism 6.
The Z′-value was calculated using the equation (1), where σ1 and σ2 are the standard deviations of DMSO control and SpCas9:gRNA control respectively. μ1 and μ2 are the mean % GFP^− cell population for DMSO control and SpCas9:gRNA control, respectively.

SpCas9 [2] = target: T1, SpCas9; experiment: HiBiT assay in U2OS.eGFP.PEST cells; parameters: host or cells: U2OS.eGFP.PEST; conditions: 24 h
Protocol: HiBiT assay. For SpCas9 expression in cells, the previously described JDS246 plasmid was used (Kleinstiver et al., 2015b). ssODN donor DNA template with the HiBiT tag was purchased as single-stranded Ultramer DNA Oligonucleotides (IDT) and resuspended to 40 μM in nuclease-free water. For the assay, 2×10^5 cells were co-transfected with 300 ng Cas9 plasmid, 75 ng sgRNA plasmid and 100 ng ssODN using the DN-100 program of Lonza 4D nucleofector according to the manufacturer's protocols. For negative controls, either the sgRNA plasmid or the ssODN was omitted. 20,000 transfected cells were plated in each well of a 96-well plate (Corning 3904). Immediately after transfection, cells were treated with varying concentrations of BRD0539 or BRD3433 and incubated at 37° C. with 5% CO2. 24 h after transfection, the cells were washed once with PBS and kept in 80 μL PBS. An equal volume of the Nano-Glo HiBiT Lytic Reagent (Promega N3030), consisting of Nano-Glo HiBiT Lytic Buffer, Nano-Glo HiBiT Lytic Substrate, and LgBiT Protein, was added according to the manufacturer's protocol, and cells were incubated for 10 min at ambient temperature with shaking at 600 rpm (Schwinn et al., 2018a). The cells were then incubated for an additional 10 min without shaking at room temperature to allow equilibration of the HiBiT and LgBiT in the lysate. The lysate was then transferred to a white plate (Corning 3990) and luminescence was measured using an Envision plate reader (Perkin-Elmer) with 1 s of integration time.

[3] = target: T2, dCas9-based transcription-activation complex (Streptococcus pyogenes serotype M1, UniProt Q99ZW2, D10A, form not given); experiment: dCas9-based transcription activation of HBG1 in HEK293FT cells (RT-qPCR); conditions: for EC50: read-out: EC50, inhibition of the transcription activation complex
T2 construct: "dSpCas9|Feng Zhang lab|NA"; The MS2-p65-HSF1(-GFP) effector is a separate chain recruited through MS2 aptamers in the sgRNA
Protocol: Transcription activation experiments and quantitative RT-PCR analyses. HEK293FT cells were maintained in high glucose DMEM with glutamax (Life Technologies) and supplemented with 10% FBS (Life Technologies), 1% penicillin-streptomycin (Life Technologies) and 1 mM sodium pyruvate (Life Technologies). For transcription activation experiments, 20,000 cells/well were plated in a poly D-lysine-coated 96-well plate. The cells were transiently transfected with a 1:1:1 mass ratio of the dCas9 plasmid, MS2-P65-HSF1 effector plasmid and the sgRNA plasmid targeting the HBG1 gene or an RFP control plasmid. A total of 0.3 μg plasmid DNA was transfected using Lipofectamine 2000 (Life Technologies) according to manufacturer's protocol. Immediately after transfection, the cells were treated with an appropriate dose of the small-molecule inhibitors. A DMSO solution of compound (20 mM) was resuspended in the 10% FBS containing growth media and thoroughly mixedbefore adding to the cells. After 48 h the cells were lysed and 5 μL of the cell lysate was used to perform reverse transcription using the RevertAid RT Reverse Transcription Kit (Thermo Fischer Scientific) as described by Joung J. et al. qPCR reactions were performed to quantify RNA expression using the TaqMan probes (Life Technologies, HBG1/HBG2: Hs00361131_g1, ACTB: Hs01060665_g1) and TaqMan Fast Advanced Master Mix (Life Technologies) in 5 μL multiplexed reactions and 384-well format using the LightCycler 480 Instrument II (Roche). For each sample, four technical replicates were performed. Data were analyzed using the LightCycler 480 software (Roche) by the ΔΔCt method: Ct values for the gene of interest (HBG1) were normalized to Ct values for the housekeeping gene (ACTB), and fold-changes in the expression level of gene of interest were normalized to RFP-transfected control. The data is reported as mean±S.E.M. for technical replicates.

[4] = 24 h, read-out: Average Inhibition activity
[5] = 24 h, read-out: Inhibition activity Rep 1
[6] = 24 h, read-out: Inhibition activity Rep 2

T1 sequence (Q99ZW2 whole entry): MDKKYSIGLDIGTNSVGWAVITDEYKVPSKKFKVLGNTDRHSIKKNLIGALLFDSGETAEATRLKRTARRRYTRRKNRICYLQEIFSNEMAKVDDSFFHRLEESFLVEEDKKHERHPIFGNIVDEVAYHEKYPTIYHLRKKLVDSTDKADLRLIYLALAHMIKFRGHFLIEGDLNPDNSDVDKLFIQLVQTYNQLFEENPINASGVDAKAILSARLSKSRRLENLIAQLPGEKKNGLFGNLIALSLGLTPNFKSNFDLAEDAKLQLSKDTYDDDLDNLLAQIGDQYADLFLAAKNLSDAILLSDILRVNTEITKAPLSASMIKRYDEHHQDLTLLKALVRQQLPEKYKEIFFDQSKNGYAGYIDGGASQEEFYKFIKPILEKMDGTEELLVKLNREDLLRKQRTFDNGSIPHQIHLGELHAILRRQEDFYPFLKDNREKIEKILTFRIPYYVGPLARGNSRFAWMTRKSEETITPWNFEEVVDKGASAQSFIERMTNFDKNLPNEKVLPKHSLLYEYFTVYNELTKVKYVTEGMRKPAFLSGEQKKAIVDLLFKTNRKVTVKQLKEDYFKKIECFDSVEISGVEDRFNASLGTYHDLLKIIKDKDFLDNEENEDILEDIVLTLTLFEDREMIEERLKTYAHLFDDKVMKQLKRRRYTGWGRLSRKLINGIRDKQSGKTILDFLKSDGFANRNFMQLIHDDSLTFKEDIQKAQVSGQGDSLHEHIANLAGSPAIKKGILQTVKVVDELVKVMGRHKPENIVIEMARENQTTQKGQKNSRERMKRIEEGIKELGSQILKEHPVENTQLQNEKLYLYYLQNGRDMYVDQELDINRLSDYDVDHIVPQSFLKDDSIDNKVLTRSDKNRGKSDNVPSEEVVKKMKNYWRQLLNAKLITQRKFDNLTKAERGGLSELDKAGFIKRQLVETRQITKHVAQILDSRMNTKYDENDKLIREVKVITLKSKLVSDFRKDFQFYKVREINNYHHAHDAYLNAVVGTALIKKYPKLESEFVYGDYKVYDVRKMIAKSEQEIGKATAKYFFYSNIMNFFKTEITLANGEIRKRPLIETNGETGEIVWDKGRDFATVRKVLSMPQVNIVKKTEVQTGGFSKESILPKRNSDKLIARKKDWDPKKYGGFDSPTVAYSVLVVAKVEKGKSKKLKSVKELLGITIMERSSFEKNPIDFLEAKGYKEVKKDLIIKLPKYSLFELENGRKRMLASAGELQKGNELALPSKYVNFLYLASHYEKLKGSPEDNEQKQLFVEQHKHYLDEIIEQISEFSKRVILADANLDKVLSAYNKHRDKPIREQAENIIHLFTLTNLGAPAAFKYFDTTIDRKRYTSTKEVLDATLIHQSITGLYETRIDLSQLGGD
T2 sequence (Q99ZW2 whole entry, form open, one chain of several, change not shown): as the sequence (Q99ZW2 whole entry) above

Row | SMILES | Average Inhibition activity (SpCas9 [1]; 24 h) | Inhibition activity Rep 1 (SpCas9 [1]; 24 h) | Inhibition activity Rep 2 (SpCas9 [1]; 24 h) | further results
1 | COc1cccc(-c2ccc3c(c2)[C@H]2[C@H](CCN2C(=O)Cc2ccncc2)[C@H](CO)N3C)c1 [BRD3433, 1-((3aS,4R,9bR)-4-(hydroxymethyl)-8-(3-methoxyphenyl)-5-methyl-2,3,3a,4,5,9b-hexahydro-1H-pyrrolo[3,2-c]quinolin-1-yl)-2-(pyridin-4-yl) ethan-1-one] | – | – | – | EC50 (SpCas9 [1]; EC50, dose-dependent inhibition of SpCas9, U2OS.eGFP.PEST cells, 24 h, tested from 2.8-17.3 μM): 9.3 µM; improvement in potency over BRD7087 (SpCas9 [1]; eGFP-disruption assay): 1.8 fold; EC50 (SpCas9 [1]; eGFP-disruption assay, read-out: apparent EC50): 11 µM; inhibition at 15 µM (SpCas9 [1]; [4]): 78.6%; inhibition at 15 µM (SpCas9 [1]; [5]): 82.2%; inhibition at 15 µM (SpCas9 [1]; [6]): 74.9%; inhibition of SpCas9 in the HiBiT assay (in words) (SpCas9 [2]): dose-dependent inhibition
2 | CN1c2ccc(C#Cc3cccnc3)cc2[C@@H]2[C@@H](CCN2C(=O)C2CCCCC2)[C@H]1CO [BRD20322, Cyclohexyl((3aR,4S,9bS)-4-(hydroxymethyl)-5-methyl-8-(pyridin-3-ylethynyl)-2,3,3a,4,5,9b-hexahydro-1H-pyrrolo[3,2-c]quinolin-1-yl) methanone] | – | – | – | inhibition of transcriptional activation ([3]; 20 μM): 89%; EC50 [3]: 12.2 µM; inhibition at 15 µM (SpCas9 [1]; [4]): 53.5%; inhibition at 15 µM (SpCas9 [1]; [5]): 47.6%; inhibition at 15 µM (SpCas9 [1]; [6]): 59.4%
3 | CN1c2ccc(C#Cc3cccnc3)cc2[C@H]2[C@H](CCN2C(=O)Nc2cc(F)ccc2F)[C@@H]1CO [BRD0048, (3aS,4R,9bR)—N-(2,5-difluorophenyl)-4-(hydroxymethyl)-5-methyl-8-(pyridin-3-ylethynyl)-2,3,3a,4,5,9b-hexahydro-1H-pyrrolo[3,2-c]quinoline-1-carboxamide] | – | – | – | EC50 [3]: 9 µM; inhibition at 15 µM (SpCas9 [1]; [4]): 76.4%; inhibition at 15 µM (SpCas9 [1]; [5]): 84.1%; inhibition at 15 µM (SpCas9 [1]; [6]): 68.7%
4 | CN1c2ccc(-c3ccc(F)cc3)cc2[C@H]2[C@H](CCN2S(=O)(=O)c2cccc(F)c2)[C@@H]1CO [BRD-K98925777] | 49.4 | 53.6 | 45.2 | –
5 | O=C(Cc1ccccc1)N1CC[C@@H]2[C@H](CO)Nc3ccc(-c4ccc(F)cc4)cc3[C@@H]21 [BRD-K05104277] | 65.0 | 71.6 | 58.4 | –
6 | Cc1ccccc1S(=O)(=O)N1CC[C@@H]2[C@H](CO)N(C)c3ccc(C#Cc4ccc(F)cc4)cc3[C@@H]21 [BRD-K11385710] | 51.1 | 55.7 | 46.5 | –
7 | O=S(=O)(c1cccc(F)c1)N1CC[C@H]2[C@H](CO)Nc3ccc(C#Cc4ccccc4F)cc3[C@H]21 [BRD-K67297693] | 72.2 | 64.3 | 80.1 | –
8 | O=C(c1ccccc1)N1CC[C@@H]2[C@H]1c1cc(C#CC3CCCCC3)ccc1N[C@@H]2CO [BRD-K92041481] | 68.3 | 57.8 | 78.8 | –
9 | O=S(=O)(c1cccc(F)c1)N1CC[C@@H]2[C@H](CO)Nc3ccc(C#Cc4ccccc4F)cc3[C@@H]21 [BRD-K12807496] | 60.8 | 50.9 | 70.7 | –
10 | COc1cccc(S(=O)(=O)N2CC[C@@H]3[C@H](CO)N(C)c4ccc(C#Cc5cccnc5)cc4[C@@H]32)c1 [BRD-K29966477] | 57.5 | 50.1 | 64.8 | –
11 | Cc1ccc(S(=O)(=O)N2CC[C@@H]3[C@H](CO)Nc4ccc(-c5cccc(C(=O)N(C)C)c5)cc4[C@@H]32)cc1 [BRD-K51395794] | 53.9 | 46.5 | 61.3 | –
12 | COc1ccccc1-c1ccc2c(c1)[C@H]1[C@H](CCN1C(=O)CN1CCOCC1)[C@H](CO)N2C [BRD-K22244182] | 50.3 | 57.2 | 43.4 | –
13 | Cc1cccc(S(=O)(=O)N2CCC3C(CO)Nc4ccc(-c5ccccc5F)cc4C32)c1 (centres unmarked) [Compound 4] | – | – | – | decrease of activity with respect to BRD0539 (SpCas9 [1]; structural analogs of BRD0539, R2=a, R1 varied): 47%
14 | O=C(CC1CC1)N1CC[C@@H]2[C@H]1c1cc(-c3ccc(F)cc3)ccc1N[C@@H]2CO [BRD-K03427362] | 49.4 | 48.3 | 50.6 | –
15 | CN1c2ccc(C#Cc3cccnc3)cc2[C@@H]2[C@@H](CCN2C(=O)c2cccc(F)c2)[C@H]1CO [BRD-K46446619] | 64.6 | 63.4 | 65.9 | –
16 | COc1ccccc1CN1CC[C@@H]2[C@H]1c1cc(C#Cc3ccccc3)ccc1N[C@@H]2CO [BRD-K18260949] | 49.5 | 49.8 | 49.1 | –
17 | COc1ccccc1C#Cc1ccc2c(c1)[C@H]1[C@H](CCN1C(=O)c1cccc(F)c1)[C@H](CO)N2 [BRD-K83261893] | 45.7 | 47.1 | 44.3 | –
18 | CN1c2ccc(C#Cc3cccnc3)cc2[C@H]2[C@H](CCN2C(=O)C2CCCCC2)[C@H]1CO [BRD-K11970601] | 54.5 | 59.0 | 50.0 | –
19 | O=C(C1CCCCC1)N1CC[C@@H]2[C@H](CO)Nc3ccc(C#Cc4ccc(F)cc4)cc3[C@@H]21 [BRD-K72901141] | 49.5 | 53.2 | 45.9 | –
20 | CCC(=O)N1CC[C@H]2[C@@H]1c1cc(C#Cc3ccccc3OC)ccc1N(C)[C@H]2CO [BRD-K31513357] | 66.7 | 59.8 | 73.6 | –
